Reference: article PMC9019904, “AD Informer Set: Chemical tools to facilitate Alzheimer's disease drug discovery” (Alzheimer's & Dementia : Translational Research & Clinical …, 2022)
In brackets after ≈: the same amount, converted by molar mass.

Tests used:
[1] = test system: HMC3 (human microglia) cell line; experiment: pHrodo-myelin phagocytosis/cell viability high content imaging assay: phagocytosis signal; type: cell-based
Summary of the method: (§1)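 Imaging at high content captured pHrodo-myelin uptake about 22 hours after its addition, alongside a viability read-out from the same cells. Three measurements were derived, with intensity increase marking early apoptosis and decrease marking later apoptosis.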

[2] = test system: BV2 (mouse microglia) cell line; experiment: as above; type: cell-based
Summary of the method: as §1

[3] = Kinetic solubility in aqueous buffer pH 7.4 by total chemiluminescent nitrogen determination (Analiza); conditions: aqueous buffer, pH 7.4, aqueous buffer, kinetic from dmso stock
[4] = test system: HMC3 (human microglia) cell line; experiment: pHrodo-myelin phagocytosis/cell viability high content imaging assay: viability (cell count, nuclear area, nuclear intensity)
Summary of the method: (§2)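 BV2 mouse and HMC3 human microglia were treated with compounds at 10 μM for 48 h, with pHrodo-myelin present for the last 20 h. Viability was imaged as total cell count per well and mean nuclear intensity per cell. Values are means of duplicates, normalized to untreated wells as % control.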

[5] = test system: BV2 (mouse microglia) cell line; experiment: as above
Summary of the method: as §2

solubility kinetic [3]	Structure (SMILES)	Inhibition of human microglial phagocytosis at 10 μM (<70% control) ([1]; 10 μM, HMC3)	Inhibition of mouse microglial phagocytosis at 10 μM (<70% control) ([2]; 10 μM, BV2)	Human microglial cytotoxicity at 10 μM (<70% control) ([4]; 10 μM, HMC3)	Mouse microglial cytotoxicity at 10 μM (<70% control) ([5]; 10 μM, BV2)	Inhibition of human microglial phagocytosis at 10 μM (<70% control) ([1]; HMC3, 10 μM)	Inhibition of mouse microglial phagocytosis at 10 μM (<70% control) ([2]; BV2, 10 μM)	Human microglial cytotoxicity at 10 μM (<70% control) ([4]; HMC3, 10 μM)	Mouse microglial cytotoxicity at 10 μM (<70% control) ([5]; BV2, 10 μM)	Human microglial cytotoxicity at 10 μM (<70% control) ([4]; HMC3, 10 μM, cell count <70% control)	Mouse microglial cytotoxicity at 10 μM (<70% control) ([5]; BV2, 10 μM, cell count <70% control)	Stimulation of mouse microglial phagocytosis at 10 μM (>150% control) ([2]; 10 μM, BV2)
1.9 µM (≈ 0.647 µg/mL)	c1ccc(CNc2nc(NCc3ccccc3)c3ccccc3n2)cc1 [DBeQ]	–	–	–	–	Y (The compound was found to inhibit phagocytosis (response threshold: <70% control) when human immortalized microglial cells were dosed at 10 μM (Y: yes))	Y (The compound was found to inhibit phagocytosis (response threshold: <70% control) when murine immortalized microglial cells were dosed at 10 μM (Y: yes))	–	–	Y (The compound was found to be cytotoxic (cell count threshold: <70% control) when human immortalized microglial cells were dosed at 10 μM (Y: yes))	Y (The compound was found to be cytotoxic (cell count threshold: <70% control) when murine immortalized microglial cells were dosed at 10 μM (Y: yes))	–
3.7 µM (≈ 2.25 µg/mL)	CCN1CCN(Cc2ccc(NC(=O)c3ccc(C)c(NC(=O)c4cncc(-c5cccs5)c4)c3)cc2C(F)(F)F)CC1 [ALW-II-41-27]	–	–	–	–	Y (The compound was found to inhibit phagocytosis (response threshold: <70% control) when human immortalized microglial cells were dosed at 10 μM (Y: yes))	Y (The compound was found to inhibit phagocytosis (response threshold: <70% control) when murine immortalized microglial cells were dosed at 10 μM (Y: yes))	Y (The compound was found to be cytotoxic (cell count threshold: <70% control) when human immortalized microglial cells were dosed at 10 μM (Y: yes))	Y (The compound was found to be cytotoxic (cell count threshold: <70% control) when murine immortalized microglial cells were dosed at 10 μM (Y: yes))	–	–	–
159 µM (≈ 75.6 µg/mL)	CC(=O)NCC(=O)N1[C@@H]2CC[C@H]1c1ccc(Nc3ncc(C(F)(F)F)c(NC4CCC4)n3)cc12 [PF-03814735 (MolPort-023-219-160)]	Y (The compound was found to inhibit phagocytosis (response threshold: <70% control) when human immortalized microglial cells were dosed at 10 μM (Y: yes))	Y (The compound was found to inhibit phagocytosis (response threshold: <70% control) when murine immortalized microglial cells were dosed at 10 μM (Y: yes))	Y (The compound was found to be cytotoxic (cell count threshold: <70% control) when human immortalized microglial cells were dosed at 10 μM (Y: yes))	Y (The compound was found to be cytotoxic (cell count threshold: <70% control) when murine immortalized microglial cells were dosed at 10 μM (Y: yes))	–	–	–	–	–	–	–
6.2 µM (≈ 3.64 µg/mL)	O=C(Nc1ccc2[nH]nc(-c3ccncc3)c2c1)[C@@H]1CCN(CC(=O)N2CCN(c3ccc(-c4ncccn4)cc3)CC2)C1 [SCH772984]	Y (The compound was found to inhibit phagocytosis (response threshold: <70% control) when human immortalized microglial cells were dosed at 10 μM (Y: yes))	–	–	Y (The compound was found to be cytotoxic (cell count threshold: <70% control) when murine immortalized microglial cells were dosed at 10 μM (Y: yes))	–	–	–	–	–	–	Y (The compound was found to stimulate phagocytosis (response threshold: >150% control) when murine immortalized microglial cells were dosed at 10 μM (Y: yes))
4.8 µM (≈ 3.32 µg/mL)	CS[C@@]1(C(=O)Nc2ccc3[nH]nc(-c4ccc(OC(C)C)nc4)c3c2)CCN(CC(=O)N2CC=C(c3ccc(-c4ncn(C)n4)cc3)CC2)C1 [MK-8353]	Y (The compound was found to inhibit phagocytosis (response threshold: <70% control) when human immortalized microglial cells were dosed at 10 μM (Y: yes))	–	–	Y (The compound was found to be cytotoxic (cell count threshold: <70% control) when murine immortalized microglial cells were dosed at 10 μM (Y: yes))	–	–	–	–	–	–	Y (The compound was found to stimulate phagocytosis (response threshold: >150% control) when murine immortalized microglial cells were dosed at 10 μM (Y: yes))
5.7 µM	CSc1ccc2c(c1)c(CCN)c(C)n2Cc1ccc(Cl)cc1Cl.Cl [K149]	Y (The compound was found to inhibit phagocytosis (response threshold: <70% control) when human immortalized microglial cells were dosed at 10 μM (Y: yes))	Y (The compound was found to inhibit phagocytosis (response threshold: <70% control) when murine immortalized microglial cells were dosed at 10 μM (Y: yes))	Y (The compound was found to be cytotoxic (cell count threshold: <70% control) when human immortalized microglial cells were dosed at 10 μM (Y: yes))	Y (The compound was found to be cytotoxic (cell count threshold: <70% control) when murine immortalized microglial cells were dosed at 10 μM (Y: yes))	–	–	–	–	–	–	–
125 µM (≈ 96.4 µg/mL)	CN(C)CCCOc1c(Br)cc(/C=C/C(=O)NCCCOc2c(Br)cc(CCN(C)C)cc2Br)cc1Br [Psammaplysene A]	Y (The compound was found to inhibit phagocytosis (response threshold: <70% control) when human immortalized microglial cells were dosed at 10 μM (Y: yes))	Y (The compound was found to inhibit phagocytosis (response threshold: <70% control) when murine immortalized microglial cells were dosed at 10 μM (Y: yes))	Y (The compound was found to be cytotoxic (cell count threshold: <70% control) when human immortalized microglial cells were dosed at 10 μM (Y: yes))	Y (The compound was found to be cytotoxic (cell count threshold: <70% control) when murine immortalized microglial cells were dosed at 10 μM (Y: yes))	–	–	–	–	–	–	–
117 µM (≈ 56.7 µg/mL)	CN(C)C/C=C/C(=O)Nc1cc2c(Nc3ccc(F)c(Cl)c3)ncnc2cc1O[C@H]1CCOC1 [Afatinib]	–	–	–	–	Y (The compound was found to inhibit phagocytosis (response threshold: <70% control) when human immortalized microglial cells were dosed at 10 μM (Y: yes))	Y (The compound was found to inhibit phagocytosis (response threshold: <70% control) when murine immortalized microglial cells were dosed at 10 μM (Y: yes))	–	Y (The compound was found to be cytotoxic (cell count threshold: <70% control) when murine immortalized microglial cells were dosed at 10 μM (Y: yes))	–	–	–

Structure (SMILES)	solubility kinetic [3]	Inhibition of human microglial phagocytosis at 10 μM (<70% control) ([1]; 10 μM, HMC3)	Inhibition of mouse microglial phagocytosis at 10 μM (<70% control) ([2]; 10 μM, BV2)	Human microglial cytotoxicity at 10 μM (<70% control) ([4]; 10 μM, HMC3)	Mouse microglial cytotoxicity at 10 μM (<70% control) ([5]; 10 μM, BV2)	Inhibition of human microglial phagocytosis at 10 μM (<70% control) ([1]; HMC3, 10 μM)	Inhibition of mouse microglial phagocytosis at 10 μM (<70% control) ([2]; BV2, 10 μM)	Human microglial cytotoxicity at 10 μM (<70% control) ([4]; HMC3, 10 μM)	Mouse microglial cytotoxicity at 10 μM (<70% control) ([5]; BV2, 10 μM)	Human microglial cytotoxicity at 10 μM (<70% control) ([4]; HMC3, 10 μM, cell count <70% control)	Mouse microglial cytotoxicity at 10 μM (<70% control) ([5]; BV2, 10 μM, cell count <70% control)	Stimulation of mouse microglial phagocytosis at 10 μM (>150% control) ([2]; 10 μM, BV2)
CC1(COc2ccc3c(c2)ncn3-c2ccc3cccc(N4CCC(N)CC4)c3n2)COC1 [Crenolanib]	115 µM (≈ 51.1 µg/mL)	Y (The compound was found to inhibit phagocytosis (response threshold: <70% control) when human immortalized microglial cells were dosed at 10 μM (Y: yes))	Y (The compound was found to inhibit phagocytosis (response threshold: <70% control) when murine immortalized microglial cells were dosed at 10 μM (Y: yes))	Y (The compound was found to be cytotoxic (cell count threshold: <70% control) when human immortalized microglial cells were dosed at 10 μM (Y: yes))	Y (The compound was found to be cytotoxic (cell count threshold: <70% control) when murine immortalized microglial cells were dosed at 10 μM (Y: yes))	–	–	–	–	–	–	–
Cc1cc(Nc2ncc(Cl)c(Nc3ccccc3S(=O)(=O)C(C)C)n2)c(OC(C)C)cc1C1CCNCC1 [Ceritinib]	25.1 µM (≈ 14 µg/mL)	–	–	–	–	Y (The compound was found to inhibit phagocytosis (response threshold: <70% control) when human immortalized microglial cells were dosed at 10 μM (Y: yes))	Y (The compound was found to inhibit phagocytosis (response threshold: <70% control) when murine immortalized microglial cells were dosed at 10 μM (Y: yes))	Y (The compound was found to be cytotoxic (cell count threshold: <70% control) when human immortalized microglial cells were dosed at 10 μM (Y: yes))	Y (The compound was found to be cytotoxic (cell count threshold: <70% control) when murine immortalized microglial cells were dosed at 10 μM (Y: yes))	–	–	–
CO[C@H]1C[C@@H]2CC[C@@H](C)[C@@](O)(O2)C(=O)C(=O)N2CCCC[C@H]2C(=O)O[C@H]([C@H](C)C[C@@H]2CC[C@@H](O)[C@H](OC)C2)CC(=O)[C@H](C)/C=C(\C)[C@@H](O)[C@@H](OC)C(=O)[C@H](C)C[C@H](C)/C=C/C=C/C=C/1C [Sirolimus]	19.8 µM (≈ 18.1 µg/mL)	Y (The compound was found to inhibit phagocytosis (response threshold: <70% control) when human immortalized microglial cells were dosed at 10 μM (Y: yes))	–	–	Y (The compound was found to be cytotoxic (cell count threshold: <70% control) when murine immortalized microglial cells were dosed at 10 μM (Y: yes))	–	–	–	–	–	–	Y (The compound was found to stimulate phagocytosis (response threshold: >150% control) when murine immortalized microglial cells were dosed at 10 μM (Y: yes))
